As a reminder, the IC50 is the midpoint of a concentration-inhibition curve.

The subject of experiment [1] is EPC-hTERT-EGFR-p53^R175H cells. Nature of the experiment: matrix invasion in 3D organotypic culture above FEF3 fetal esophageal fibroblast matrices. It is filed as cell-based, human. The conditions noted are these: 100 nM. The method, then: (§1) (A) Fluorescence measurements representing invading cells on the bottom filters of a Matrigel®-coated Boyden chamber where HGF was added as the chemoattractant of EPC-hTERT-EGFR-p53^R175H cells seeded atop the filter. (B) Level of secreted HGF in conditioned media from FEF3 fibroblasts±HGF siRNA set up in organotypic culture and detected by ELISA. (C) H&E sections of organotypic cultures of FEF3 fibroblasts±HGF siRNA seeded into the matrix with EPC-hTERT-EGFR-p53^R175H grown above (scale bar=100 μm). (D) Quantification of invasion in entire organotypic culture imaged in (C). Error bars represent ±SEM and * indicates p values ≦0.05 when compared to the control.
(A) Western blot of EPC-hTERT-EGFR-p53^R175HshMet or EPC-hTERT-EGFR-p53^R175H shScramble cells (two independent lines of each genotype) to determine extent of Met knockdown of total protein and activation state. (B) H&E sections of organotypic culture of EPC-hTERT-EGFR-p53^R175H-shMet or EPC-hTERT-EGFRp53^R175H-shScramble cells seeded above matrices containing FEF3 fetal esophageal fibroblasts. (C) H&E sections of organotypic cultures of EPC-hTERT-EGFR-p53^R175H cells seeded above FEF3 matrices treated with DMSO vehicle (days 7-15) or 100 nM PHA665752 (days 7-15 or day 11-15) as indicated. […]

The next experiment has as its system periostin. The experiment in a line: Western blot of periostin expression in cell lysates. It is filed as cell-based, human. The conditions noted are these: EPC2-hTERT-EGFR-p53^R175H cells, 24 h treatment; EGF 10 ng/μl, AG1478 1 μM, 5-iminodaunorubicin 3 μM. The method, then: FIG. 24: Periostin expression is dependent upon EGFR signaling and mutant p53 activation (A) Western blot analysis of periostin (90 kDa) in EPC2-hTERT-EGFR-p53^R175H, EPC2-hTERT-puro-neo, EPC2-hTERT-EGFR-neo and EPC2-hTERT-neo-p53^R175H cells. (B) Western blot analysis of periostin expression in EPC2-hTERT-EGFR-p53^R175H cell lysates after 24 h treatment with EGF (10 ng/μl), EGFR inhibitor AG1478 (1 μM) and 5-iminodaunorubicin (3 μM). Immunoblotting for total EGFR and phosphorylated EGFR to confirm inhibition of EGFR as well as p21 to indicate restoration of wildtype p53 signaling. β-actin was used as a loading control. Densitometry ratios of periostin/β-actin were calculated and recorded.
(§2) For Western blot analysis, cells were lysed in lysis buffer (10 mM Tris-HCl, pH 7.4, 150 mM NaCl, 1% Nonidet P-40, 0.1% sodium deoxycholate, 0.1% SDS, 1 mM EDTA, 2 mM sodium orthovanadate and a protease inhibitor tablet, Roche Molecular Biochemicals, Indianapolis, Ind.). Protein concentration was determined by the Bio-Rad protein assay (Bio-Rad, Hercules, Calif.). 15 μg of protein were run on a 4-12% SDS-PAGE gel (Invitrogen™) and transferred to a polyvinylidene difluoride membrane (Immobilon-P®, Millipore, Bedford, Mass.). Membranes were blocked in 5% nonfat milk (Bio-Rad) in TBS-T (10 mM Tris, 150 mM NaCl, pH 8.0 and 0.1% Tween® 20) for 1 h at room temperature. Membranes were then probed with primary antibody diluted in 5% milk in TBS-T overnight at 4° C., washed with TBS-T and incubated with anti-mouse or anti-rabbit horseradish peroxidase-conjugated secondary antibodies (GE Biotech, 1:3000 in TBS-T) for 1 h at room temperature and washed in TBS-T. The signal was visualized using an enhanced chemiluminescence solution (ECL Plus, Amersham™ Pharmacia Biotech) and exposed to Blue Lite Autorad film (ISC-BioExpress, Kaysville, Utah). To confirm secreted periostin expression, conditioned media was collected and protein concentration was determined by Bio-Rad protein assay (Bio-Rad) and Western blot analysis was performed as described above.
(In general: Immunoblotting shows a protein as a band on a membrane.)

The test system of another experiment is Met. The experiment in a line: Met phosphorylation in EPC-hTERT-EGFR-p53^R175H cells. The conditions noted are these: data not shown. In kind it is cell-based, human. Here is the method: as §2
The next experiment concerns the target T1, MMP-1 (Homo sapiens, UniProt P03956).
T1 sequence (P03956 100-469): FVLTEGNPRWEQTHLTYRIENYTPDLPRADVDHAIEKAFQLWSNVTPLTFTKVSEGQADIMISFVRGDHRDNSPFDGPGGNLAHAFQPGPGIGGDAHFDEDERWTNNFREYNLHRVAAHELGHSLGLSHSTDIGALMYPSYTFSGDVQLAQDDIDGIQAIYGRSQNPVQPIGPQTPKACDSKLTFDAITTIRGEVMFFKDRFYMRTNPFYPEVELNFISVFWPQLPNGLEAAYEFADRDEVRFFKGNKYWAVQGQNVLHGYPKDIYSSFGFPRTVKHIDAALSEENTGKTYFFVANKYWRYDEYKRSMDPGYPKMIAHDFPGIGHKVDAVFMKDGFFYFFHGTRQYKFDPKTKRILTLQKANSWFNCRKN
The conditions noted are these: cited from earlier work.

In experiment [2] the test system is EPC-hTERT-EGFR-p53^R175H cells. The experiment in a line: Matrigel-coated Boyden chamber invasion assay with chemoattractant. In kind it is cell-based, human. The conditions noted are these: HGF added as chemoattractant. The method, then: as §1
For migration assays, Boyden chambers (8 μm pore size, FluoroBlok-HTS inserts, BD Biosciences) were used. For invasion assays, insert-plates (8 μm pore size, FluoroBlock, 24 well insert) coated with BD Matrigel® matrix were used. Inserts were placed in a 24-well plate containing Full KSFM medium with serum to stimulate cell migration and invasion. 5×10^4 cells in serum-free medium were placed in each insert. Twenty-four hours later, migrating or invading cells were labeled with 4 μg/ml Calcein AM dye (Invitrogen™) in HANKS buffer for 1 hour. The labeled cells were then read on a Synergy HT multi-detection microplate reader (BIOTEK®, Woburn, Mass.) at 485 nm excitation and 528 nm detection. […]

In the case of `Cc1[nH]c(/C=C2\C(=O)Nc3ccc(S(=O)(=O)Cc4c(Cl)cccc4Cl)cc32)c(C)c1C(=O)N1CCC[C@@H]1CN1CCCC1` [PHA665752], the “invasion of EPC-hTERT-EGFR-p53^R175H cells in organotypic culture” value in experiment [1] (treated for seven days following epithelial cell seeding (days 7-15)) and in experiment [1] (treated for the final four days when invasion occurs (day 11-15)) was “inhibited invasion” throughout.
As to `COc1cc2ncnc(Nc3cccc(Cl)c3)c2cc1OC` [AG1478], the periostin protein expression result with periostin is “decreased”. The Met phosphorylation entry with Met is reported as “nor was Met phosphorylation inhibited”.
Regarding `CCN(CC)Cc1cc(C)c(N(Cc2ccccc2)S(=O)(=O)c2ccc(OC)cc2)c(C(=O)NO)c1` [MMP-9 inhibitor], the IC50 on MMP-1 was 1.05 µM.
Turning to “HGF: Recombinant human HGF purchased from R&D Systems”, in experiment [2], the “levels of invading cells” value is given as “significantly increased levels of invading”.
As to “EGF: epidermal growth factor used to stimulate EGFR”, the periostin protein expression entry in the experiment on periostin was “increased periostin protein expression”.
`COc1cccc2c1C(=N)c1c(O)c3c(c(O)c1C2=O)C[C@@](O)(C(C)=O)C[C@@H]3O[C@H]1C[C@H](N)[C@H](O)[C@H](C)O1` [5-iminodaunorubicin]: the periostin protein expression entry with periostin is recorded as “decreased”.

The values are drawn from US9637787B2, “Culture based screening assay and methods of use thereof to identify agents which modulate tumor development, invasion and differentiation” (The Trustees of the University of Pennsylvania, priority 2007, dated 2017).
